Patent US9062055B2, “Fused pyrrole derivatives as PI3K inhibitors” (Incyte Corporation, priority 2010, dated 2015)
Where a name gives a salt, the structure may show the parent alone.

These compounds were tested against T1, PI3Kδ (p110δ/p85α) (Homo sapiens, UniProt O00329) (assay: PI3Kδ Scintillation Proximity Assay). Settings: TFA salts of racemates tested; 20 μM PIP2, 20 μM ATP, 4 nM PI3Kδ, 210 min, room temperature.
T1 construct: purchased Millipore (Bedford, Mass.)
T1 sequence (O00329 whole entry): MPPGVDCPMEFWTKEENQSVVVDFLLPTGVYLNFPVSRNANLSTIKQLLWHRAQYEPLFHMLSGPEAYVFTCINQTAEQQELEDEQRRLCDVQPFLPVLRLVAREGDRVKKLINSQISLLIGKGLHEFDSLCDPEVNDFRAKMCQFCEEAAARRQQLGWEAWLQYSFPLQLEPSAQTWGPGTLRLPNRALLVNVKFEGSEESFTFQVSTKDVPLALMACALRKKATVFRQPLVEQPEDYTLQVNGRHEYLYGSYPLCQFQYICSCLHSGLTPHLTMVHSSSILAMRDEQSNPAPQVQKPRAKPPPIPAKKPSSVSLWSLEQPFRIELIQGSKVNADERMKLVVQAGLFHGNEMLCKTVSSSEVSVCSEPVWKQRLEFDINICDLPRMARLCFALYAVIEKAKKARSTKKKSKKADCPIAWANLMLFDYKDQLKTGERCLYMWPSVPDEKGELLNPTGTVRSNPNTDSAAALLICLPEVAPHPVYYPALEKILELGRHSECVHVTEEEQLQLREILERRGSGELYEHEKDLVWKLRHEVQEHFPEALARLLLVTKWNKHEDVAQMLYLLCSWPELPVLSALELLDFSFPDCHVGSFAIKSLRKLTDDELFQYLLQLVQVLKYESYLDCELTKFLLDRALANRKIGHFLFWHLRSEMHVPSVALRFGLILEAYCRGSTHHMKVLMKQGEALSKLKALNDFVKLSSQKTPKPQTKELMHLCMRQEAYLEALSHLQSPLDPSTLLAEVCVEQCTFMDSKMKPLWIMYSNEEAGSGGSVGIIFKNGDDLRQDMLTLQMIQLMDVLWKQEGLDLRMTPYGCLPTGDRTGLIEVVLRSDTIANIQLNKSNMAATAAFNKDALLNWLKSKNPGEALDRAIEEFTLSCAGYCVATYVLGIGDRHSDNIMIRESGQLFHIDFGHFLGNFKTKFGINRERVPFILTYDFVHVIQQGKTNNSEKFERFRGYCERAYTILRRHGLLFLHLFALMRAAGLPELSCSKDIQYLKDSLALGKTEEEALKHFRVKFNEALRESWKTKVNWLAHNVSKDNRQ
T1 sequence (P27986 whole entry partner): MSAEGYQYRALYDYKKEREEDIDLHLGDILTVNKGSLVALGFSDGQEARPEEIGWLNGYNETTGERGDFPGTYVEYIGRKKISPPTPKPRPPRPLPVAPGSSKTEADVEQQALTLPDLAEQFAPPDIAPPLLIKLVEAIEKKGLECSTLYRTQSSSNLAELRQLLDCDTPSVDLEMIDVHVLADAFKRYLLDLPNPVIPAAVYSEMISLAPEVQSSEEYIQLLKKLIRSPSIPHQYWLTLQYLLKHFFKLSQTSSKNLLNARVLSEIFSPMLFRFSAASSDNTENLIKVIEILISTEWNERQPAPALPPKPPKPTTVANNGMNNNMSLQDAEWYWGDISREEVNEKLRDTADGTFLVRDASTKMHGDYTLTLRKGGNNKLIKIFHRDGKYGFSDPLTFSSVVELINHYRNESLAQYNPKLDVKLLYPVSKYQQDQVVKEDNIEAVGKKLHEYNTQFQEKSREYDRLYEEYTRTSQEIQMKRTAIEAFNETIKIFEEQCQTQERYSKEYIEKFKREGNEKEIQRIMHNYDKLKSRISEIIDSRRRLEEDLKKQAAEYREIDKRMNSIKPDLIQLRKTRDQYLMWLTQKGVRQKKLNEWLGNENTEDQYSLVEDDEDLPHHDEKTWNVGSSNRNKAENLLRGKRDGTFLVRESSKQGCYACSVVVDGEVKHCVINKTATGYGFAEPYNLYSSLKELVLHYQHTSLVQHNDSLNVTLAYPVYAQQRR
Format: biochemical
From the text: [γ-^33P]ATP (10 mCi/mL) was purchased from Perkin-Elmer (Waltham, Mass.). Lipid kinase substrate, D-myo-Phosphatidylinositol 4,5-bisphosphate (PtdIns(4,5)P2)D (+)-sn-1,2-di-O-octanoylglyceryl, 3-O-phospho linked (PIP2), CAS 204858-53-7, was purchased from Echelon Biosciences (Salt Lake City, Utah). PI3Kδ (p110δ/p85α) was purchased from Millipore (Bedford, Mass.). ATP, MgCl2, DTT, EDTA, MOPS and CHAPS were purchased from Sigma-Aldrich (St. Louis, Mo.). Wheat Germ Agglutinin (WGA) YSi SPA Scintillation Beads was purchased from GE healthcare life sciences (Piscataway, N.J.). The kinase reaction was conducted in polystyrene 384-well matrix white plate from Thermo Fisher Scientific in a final volume of 25 μL. Inhibitors were first diluted serially in DMSO and added to the plate wells before the addition of other reaction components. The final concentration of DMSO in the assay was 0.5%. The PI3K assays were carried out at room temperature in 20 mM MOPS, pH 6.7, 10 mM MgCl2, 5 mM DTT and CHAPS 0.03%. Reactions were initiated by the addition of ATP, the final reaction mixture consisted of 20 μM PIP2, 20 μM ATP, 0.2 μCi [γ-^33P] ATP, 4 nM PI3Kδ. Reactions were incubated for 210 min and terminated by the addition of 40 μL SPA beads suspended in quench buffer: 150 mM potassium phosphate pH 8.0, 20% glycerol. 25 mM EDTA, 400 μM ATP. The final concentration of SPA beads was 1.0 mg/mL After the plate sealing, plates were shaken overnight at room temperature and centrifuged at 1800 rpm for 10 minutes, the radioactivity of the product was determined by scintillation counting on Topcount (Perkin-Elmer). IC50 determination was performed by fitting the curve of percent control activity versus the log of the inhibitor concentration using the GraphPad Prism 3.0 software. See Table 1 for data related to compounds of the invention (TFA salts of racemates of each of the compounds were tested).
CC(Nc1ncnc2[nH]cnc12)c1cc2ccc(Cl)cc2n1-c1cccc(F)c1 (racemic) [Example 1, N-{1-[6-Chloro-1-(3-fluorophenyl)-1H-indol-2-yl]ethyl}-9H-purin-6-amine trifluoroacetate] was tested, and the IC50 was 100 to 250 nM. CC(Nc1ncnc2[nH]cnc12)c1cc2c(Cl)cccc2n1-c1cccc(F)c1 (racemic) [Example 2, N-{1-[4-Chloro-1-(3-fluorophenyl)-1H-indol-2-yl]ethyl}-9H-purin-6-amine trifluoroacetate] showed an IC50 of at most 50 nM. For CC(Nc1ncnc2[nH]cnc12)c1c(Cl)c2ccccc2n1-c1cccc(F)c1 (racemic) [Example 3, N-{1-[3-Chloro-1-(3-fluorophenyl)-1H-indol-2-yl]ethyl}-9H-purin-6-amine trifluoroacetate], the IC50 was at most 50 nM. Compound CC(Nc1ncnc2[nH]cnc12)c1c(Cl)c2c(Cl)cccc2n1-c1cccc(F)c1 (racemic) [Example 4, N-{1-[3,4-Dichloro-1-(3-fluorophenyl)-1H-indol-2-yl]ethyl}-9H-purin-6-amine trifluoroacetate] has an IC50 of 50 to 100 nM. Work on CC(Nc1ncnc2[nH]cnc12)c1c(Br)c2ccccc2n1-c1cccc(F)c1 (racemic) [Example 5, N-{1-[3-Bromo-1-(3-fluorophenyl)-1H-indol-2-yl]ethyl}-9H-purin-6-amine trifluoroacetate] yielded an IC50 of 50 to 100 nM. In the case of CC(Nc1ncnc2[nH]cnc12)c1c(Cl)c2cccnc2n1-c1cccc(F)c1 (racemic) [Example 6, N-{1-[3-Chloro-1-(3-fluorophenyl)-1H-pyrrolo[2,3-b]pyridin-2-yl]ethyl}-9H-purin-6-amine bis(trifluoroacetate)], the IC50 is reported as at most 50 nM. Work on CC(Nc1ncnc2[nH]cnc12)c1cc2cccnc2n1-c1cccc(F)c1 (racemic) [Example 7, N-(1-(1-(3-Fluorophenyl)-1H-pyrrolo[2,3-b]pyridin-2-yl)ethyl)-9H-purin-6-amine bis(2,2,2-trifluoroacetate)] yielded an IC50 of 250 to 750 nM. For Cc1c(C(C)Nc2ncnc3[nH]cnc23)n(-c2cccc(F)c2)c2ccccc12 (racemic) [Example 8, N-{1-[1-(3-Fluorophenyl)-3-methyl-1H-indol-2-yl]ethyl}-9H-purin-6-amine trifluoroacetate], the IC50 was at most 50 nM. Compound CC(Nc1ncnc2[nH]cnc12)c1c(C#N)c2ccccc2n1-c1cccc(F)c1 (racemic) [Example 9, 2-(1-(9H-Purin-6-ylamino)ethyl)-1-(3-fluorophenyl)-1H-indole-3-carbonitrile 2,2,2-trifluoroacetate] has an IC50 of at most 50 nM. CC(Nc1ncnc2[nH]cnc12)c1c(F)c2cccnc2n1-c1cccc(F)c1 (racemic) [Example 10, N-(1-(3-Fluoro-1-(3-fluorophenyl)-1H-pyrrolo[2,3-b]pyridin-2-yl)ethyl)-9H-purin-6-amine bis(2,2,2-trifluoroacetate)] was tested, and the IC50 was 100 to 250 nM.
